The values below come from PubChem BioAssay AID1592 (Sanford-Burnham Center for Chemical Genomics, 2009).

The source made the active and inactive calls.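 How the source made its calls: active means less than 90% of the starting compound still present after 180 minutes in mouse plasma; inactive means 90% or more still present.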

This data set relates to mouse plasma stability, LC/MS/MS, 180 min. Nature of the data set: mouse plasma degradation, percent remaining – biochemical, LC/MS/MS, 180 min, dry powder, ADME assay, late-stage follow-up (AID 1592). The following applies: at 1 µM; hits give low values.

For `C=CCn1c(SCC(=O)c2ccc(O)c(O)c2)nnc1-c1ccccc1OC`, the percent remaining is 93.2% (inactive).
